Tests used:
Dopamin = assay: Determination of dopamine in blood plasma of patients after administration (method of G. Weth); assay type: in vivo, Patienten; conditions: for Dopamin MW: 25 mg Captopril, mean of 12 patients, value at time 0: 110
Excerpt: (§1) Die Dopaminbestimmung wurde nach G. Weth, "Das Verhalten der Neurotransmitter....", Dissertation, Würzburg, 1987, S. 123-138, durchgeführt. Die Bestimmung von Prolaktin wurde radioimmunologisch nach den Methoden von P. Hwang, H. Guyda, H. Friesen, Proc. Nat. Sci. (USA) 1971, 68/8, S.1902-06 durchgeführt.
(§2) Für die Untersuchungen wurden 2x12 Patienten (Alter 75±10 Jahre), die unter Durchblutungsstörungen, sowohl peripheren als auch zentralen, litten, herangezogen. […]
Die Bestimmung der Dopamin- und Prolaktinwerte wurde wie folgt vorgenommen. In angegebenen Zeitabschnitten von 15, 30, 60 und 120 Minuten wurden dem Patienten je 5 ml Blut entnommen und in speziell präparierte Vakuum-Container, die Glutathion und EDTA enthielten, gegeben. Das Blut wurde sofort auf 2 °C abgekühlt und bei 2 °C zentrifugiert. Das überstehende Blutplasma wurde bis zur Dopamin- und Prolaktinbestimmung bei minus 80 °C tiefgefroren.
(§3) In den Tabellen sind die Ergebnisse der vorstehend angeführten pharmakologischen Untersuchungen zusammengestellt. Die Dimensionsangaben betragen für Dopamin pg/ml bzw. ng/l und für Prolaktin ng/ml.

Prolaktin = assay: Radioimmunological determination of prolactin in blood plasma of patients after administration; assay type: in vivo, Patienten; conditions: for Prolaktin MW: 25 mg Captopril, mean of 12 patients; for Prolaktinsenkung (Effekt): Fig. 2, result in words
Excerpt: as §1, §2
Die Bestimmung der Dopamin- und Prolaktinwerte wurde wie folgt vorgenommen. […] Das Blut wurde sofort auf 2 °C abgekühlt und bei 2 °C zentrifugiert. Das überstehende Blutplasma wurde bis zur Dopamin- und Prolaktinbestimmung bei minus 80 °C tiefgefroren.
as §3

C[C@H](CS)C(=O)N1CCC[C@H]1C(=O)O [Captopril]
Höhepunkt des Anstiegs von Dopamin (time) (Dopamin; 25 mg Captopril oral per patient (mean weight 60 kg), Fig. 1): ~60 min
Dopamin MW (Dopamin; 15 min after dosing): 163 pg/mL
Dopamin MW (Dopamin; 30 min after dosing): 210 pg/mL
Dopamin MW (Dopamin; 60 min after dosing): 291 pg/mL
Dopamin MW (Dopamin; 90 min after dosing): 250 pg/mL
Dopamin MW (Dopamin; 120 min after dosing): 211 pg/mL
Maximum der Dopaminfreisetzung (time) (Dopamin; 12,5 mg Captopril, Fig. 3): 60 min
Anstieg von Dopamin (Dopamin; 15 min after 25 mg Captopril oral per patient (mean weight 60 kg), Fig. 1, result in words): signifikanten Anstieg
Anstieg von Dopamin (Dopamin; 30 min after 25 mg Captopril, result in words): hochsignifikanten Anstieg
Anstieg (Dopaminfreisetzung) (Dopamin; 30 min after 12,5 mg Captopril, Fig. 3, result in words): signifikant
Prolaktin MW (Prolaktin; 15 min after dosing, value at time 0: 14,3): 13,6 ng/ml
Prolaktin MW (Prolaktin; 30 min after dosing, value at time 0: 14,8): 12,3 ng/ml
Prolaktin MW (Prolaktin; 60 min after dosing, value at time 0: 14,8): 9,0 ng/ml
Prolaktin MW (Prolaktin; 90 min after dosing, value at time 0: 14,8): 8,4 ng/ml
Prolaktin MW (Prolaktin; 120 min after dosing, value at time 0: 14,8): 7,9 ng/ml
Prolaktinsenkung (Effekt) (Prolaktin; 15 min after 25 mg Captopril oral per patient (mean weight 60 kg)): signifikanter
Prolaktinsenkung (Effekt) (Prolaktin; 60 min after 25 mg Captopril oral per patient (mean weight 60 kg)): hochsignifikanter

From patent publication EP0498899A1, “Use of N-(mercaptoacyl)-amino acids as dopaminergic und gonadoptropic medicaments” (Weth, Gosbert Dr. med., Dr. rer. nat., priority 1990, dated 1992)
